Data published in patent US20230312550A1, “N-(2-(4-CYANOTHIAZOLIDIN-3-YL)-2-OXOETHYL)-QUINOLINE-4-CARBOXAMIDES” (AstraZeneca AB, priority 2020, published 2023).
In brackets after ≈: the same amount, converted by molar mass.

What was measured:
[1] = Metabolic stability in human liver microsomes (HLM); details: human
Method: Metabolic stability in HLM was measured as described in J Comput Aided Mol Des 2015, 29, 795.

[2] = molecular target: human Fibroblast activation protein alpha (hFAP) (Homo sapiens (Human), UniProt Q12884); assay: hFAP inhibition assay (tight binders); type: biochemical; details: Ala-Pro-AMC 20 μM, n = 1 or geometric mean n = 2-6; further: hFAP 2.4 pM
human Fibroblast activation protein alpha (hFAP), sequence (Q12884 38-760): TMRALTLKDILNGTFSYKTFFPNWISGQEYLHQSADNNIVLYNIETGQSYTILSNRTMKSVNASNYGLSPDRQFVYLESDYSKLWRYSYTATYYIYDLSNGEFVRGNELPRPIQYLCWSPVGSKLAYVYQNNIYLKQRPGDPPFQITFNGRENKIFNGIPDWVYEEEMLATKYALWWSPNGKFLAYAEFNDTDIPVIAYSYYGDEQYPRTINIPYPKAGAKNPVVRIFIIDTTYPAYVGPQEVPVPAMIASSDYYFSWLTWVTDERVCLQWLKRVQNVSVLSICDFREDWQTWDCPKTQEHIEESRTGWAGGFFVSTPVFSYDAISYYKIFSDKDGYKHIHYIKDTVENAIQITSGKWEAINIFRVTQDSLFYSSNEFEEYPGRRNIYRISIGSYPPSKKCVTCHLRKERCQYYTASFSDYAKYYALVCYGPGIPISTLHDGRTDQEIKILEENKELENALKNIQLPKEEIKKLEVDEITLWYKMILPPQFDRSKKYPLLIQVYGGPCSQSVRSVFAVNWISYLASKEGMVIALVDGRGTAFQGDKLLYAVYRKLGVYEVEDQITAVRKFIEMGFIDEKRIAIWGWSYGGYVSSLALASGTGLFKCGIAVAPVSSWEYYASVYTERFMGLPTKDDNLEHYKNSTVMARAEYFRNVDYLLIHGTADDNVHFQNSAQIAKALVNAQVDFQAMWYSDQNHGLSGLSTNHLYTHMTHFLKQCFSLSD
Method: The plates were read on a PHERAstar® reader with excitation 340 nm and emission 460 nm. Data were analyzed in Genedata Screener®. IC50 values were determined by plotting % inhibition versus log compound concentration and using a one site dose response model.

[3] = molecular target: Prolyl endopeptidase, Prolyl Oligopeptidase (hPREP) (Homo sapiens (Human), UniProt P48147); assay: hPrep inhibition assay; type: biochemical; details: hPREP 0.6 nM, Z-Gly-Pro-amino-methylcoumarin 50 μM; read-out: PREP IC50
Prolyl endopeptidase, Prolyl Oligopeptidase (hPREP), sequence (P48147 whole entry): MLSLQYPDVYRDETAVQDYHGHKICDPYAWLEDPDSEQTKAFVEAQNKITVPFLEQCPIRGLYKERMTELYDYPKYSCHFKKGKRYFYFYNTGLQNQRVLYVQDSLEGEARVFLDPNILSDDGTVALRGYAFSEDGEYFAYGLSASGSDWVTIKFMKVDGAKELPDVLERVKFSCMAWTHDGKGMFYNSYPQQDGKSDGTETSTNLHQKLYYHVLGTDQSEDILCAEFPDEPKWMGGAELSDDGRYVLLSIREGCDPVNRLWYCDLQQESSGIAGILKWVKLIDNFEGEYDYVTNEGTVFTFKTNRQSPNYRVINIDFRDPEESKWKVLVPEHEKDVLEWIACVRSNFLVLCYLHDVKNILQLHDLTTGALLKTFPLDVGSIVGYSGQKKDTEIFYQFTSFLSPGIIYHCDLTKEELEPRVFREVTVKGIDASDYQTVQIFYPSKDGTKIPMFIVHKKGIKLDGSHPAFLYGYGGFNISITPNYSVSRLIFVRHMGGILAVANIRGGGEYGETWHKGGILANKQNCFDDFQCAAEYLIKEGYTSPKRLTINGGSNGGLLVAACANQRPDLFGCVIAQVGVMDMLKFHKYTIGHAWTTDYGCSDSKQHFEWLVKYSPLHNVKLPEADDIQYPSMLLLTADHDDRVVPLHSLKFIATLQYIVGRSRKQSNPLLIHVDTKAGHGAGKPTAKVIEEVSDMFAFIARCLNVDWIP
Outline: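 Fluorogenic read-out (340 nm excitation, 460 nm emission) after 20 min at rt, using 50 μM final Z-Gly-Pro-aminomethylcoumarin and 0.6 nM final enzyme, following 15 min compound preincubation. Buffer pH 7.5 with glutathione and Triton X-100. IC50 via one-site model on % inhibition vs log concentration.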

[4] = Metabolic stability in rat hepatocytes (rHep); details: n = 1 or geometric mean of n = 2-3
Kinetic solubility = details: kinetic from dmso stock
Method: Kinetic solubility was measured as described in Comput Aided Mol Des 2015, 29, 795.

hFAP (M39-A757) = hFAP (M39-A757) (Homo sapiens (Human), UniProt Q12884); assay: hFAP binding assay (surface plasmon resonance); details: SPR, 20° C.; for hFAP Binding assay k(off) / hFAP Binding assay k(on): single cycle kinetics; for Kd: n = 1 or geometric mean n = 2-4
hFAP (M39-A757), sequence (Q12884 39-757): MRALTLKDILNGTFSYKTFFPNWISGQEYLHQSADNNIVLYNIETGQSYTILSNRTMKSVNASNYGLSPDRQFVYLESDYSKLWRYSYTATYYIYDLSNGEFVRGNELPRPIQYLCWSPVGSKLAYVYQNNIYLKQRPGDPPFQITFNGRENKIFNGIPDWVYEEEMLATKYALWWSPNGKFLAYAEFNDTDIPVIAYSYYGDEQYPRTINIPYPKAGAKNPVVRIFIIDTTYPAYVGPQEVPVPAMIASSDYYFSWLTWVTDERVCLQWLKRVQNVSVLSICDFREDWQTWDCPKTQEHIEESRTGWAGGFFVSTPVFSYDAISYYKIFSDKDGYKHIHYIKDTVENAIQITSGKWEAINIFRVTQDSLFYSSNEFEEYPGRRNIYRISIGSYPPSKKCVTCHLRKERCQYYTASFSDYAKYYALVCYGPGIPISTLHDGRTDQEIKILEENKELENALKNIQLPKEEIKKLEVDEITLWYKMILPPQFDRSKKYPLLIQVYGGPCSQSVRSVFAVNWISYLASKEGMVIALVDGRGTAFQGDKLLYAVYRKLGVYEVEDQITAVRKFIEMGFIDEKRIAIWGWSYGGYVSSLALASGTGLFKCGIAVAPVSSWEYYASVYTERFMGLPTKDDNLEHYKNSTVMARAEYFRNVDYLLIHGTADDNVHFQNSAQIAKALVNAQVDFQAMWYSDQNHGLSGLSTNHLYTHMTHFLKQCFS

[5] = HLM CLint, n = 1 or average of n = 2-3
[6] = Solubility, kinetic solubility, n = 1 or average of n = 2-3

SMILES	microsomal CLint [1, 5] [µL/min/mg]	IC50 [2] [nM]	IC50 [3] [nM]	rHep CLint [4] [μL/min/1E6]	solubility (Kinetic solubility; [6]) [µM]	hFAP Binding assay k(off) (hFAP (M39-A757)) [s⁻¹]	hFAP Binding assay k(on) (hFAP (M39-A757)) [M⁻¹ s⁻¹]	Kd (hFAP (M39-A757)) [nM]	microsomal CLint [1] [µL/min/mg]	solubility (Kinetic solubility) [µM]
N#C[C@@H]1CSCN1C(=O)CNC(=O)c1ccnc2ccc(N3CC4C(C3)C4(F)F)cc12 (stereo partly drawn) [Example 160, N-(2-((R)-4-Cyanothiazolidin-3-yl)-2-oxoethyl)-6-(6,6-difluoro-3-azabicyclo[3.1.0]hexan-3-yl)quinoline-4-carboxamide]	45	0.05	210	33	1.8 (≈ 0.798 µg/mL)	0.000074	1100000	0.068		
CO[C@@H]1CCN(c2ccc3nccc(C(=O)NCC(=O)N4CSC[C@H]4C#N)c3c2)C1 [Example 161, N-(2-((R)-4-Cyanothiazolidin-3-yl)-2-oxoethyl)-6-((R)-3-methoxy-pyrrolidin-1-yl)quinoline-4-carboxamide]	6.7	0.052	470	8.5	84 (≈ 35.7 µg/mL)	0.00028	14000000	0.022		
N#C[C@@H]1CSCN1C(=O)CNC(=O)c1ccnc2ccc(N3CCC4(CCOCC4)CC3)cc12 [Example 162, (R)—N-(2-(4-cyanothiazolidin-3-yl)-2-oxoethyl)-6-(3-oxa-9-azaspiro[5.5]undecan-9-yl)quinoline-4-carboxamide]		0.053	280	3.4		0.000028	1900000	0.018	44	140 (≈ 67.1 µg/mL)
N#C[C@@H]1CSCN1C(=O)CNC(=O)c1ccnc2ccc(N3CC4(CC4)C3)cc12 [Example 164, (R)—N-(2-(4-Cyanothiazolidin-3-yl)-2-oxoethyl)-6-(5-azaspiro[2.3]hexan-5-yl)quinoline-4-carboxamide]		0.081	240	8.1		0.000036	1400000	0.027	22	64 (≈ 26.1 µg/mL)
N#C[C@@H]1CSCN1C(=O)CNC(=O)c1ccnc2cc(Cl)c(N3CCOCC3)cc12 [Example 179, (R)-7-Chloro-N-(2-(4-cyanothiazolidin-3-yl)-2-oxoethyl)-6-morpholino-quinoline-4-carboxamide]	140	0.048	470	47	110 (≈ 49.1 µg/mL)	0.00016	3200000	0.052		
N#C[C@@H]1CSCN1C(=O)CNC(=O)c1ccnc2c(Cl)cc(N3CCOCC3)cc12 [Example 180, (R)-8-Chloro-N-(2-(4-cyanothiazolidin-3-yl)-2-oxoethyl)-6-morpholino-quinoline-4-carboxamide]	110	0.2	590	3	170 (≈ 75.8 µg/mL)	0.00095	560000	1.3		
CCC1(OC)CCN(c2ccc3nccc(C(=O)NCC(=O)N4CSC[C@H]4C#N)c3c2)CC1 [Example 191, (R)—N-(2-(4-Cyanothiazolidin-3-yl)-2-oxoethyl)-6-(4-ethyl-4-methoxy-piperidin-1-yl)quinoline-4-carboxamide]	94	0.038	550	5.3	400 (≈ 187 µg/mL)	0.000033	1500000	0.022		
C[C@@H]1CN(c2ccc3nccc(C(=O)NCC(=O)N4CSC[C@H]4C#N)c3c2)C[C@H](C)[C@]1(C)O [Example 193, N-(2-((R)-4-Cyanothiazolidin-3-yl)-2-oxoethyl)-6-((3R,4S,5S)-4-hydroxy-3,4,5-trimethylpiperidin-1-yl)quinoline-4-carboxamide]	53	0.24	360	11	940 (≈ 440 µg/mL)	0.00012	740000	0.16		
N#C[C@@H]1CSCN1C(=O)CNC(=O)c1ccnc2ccc(N3C[C@H]4CCC[C@@H](C3)O4)cc12 [Example 194, 6-((1R,5S)-9-Oxa-3-azabicyclo[3.3.1]nonan-3-yl)-N-(2-((R)-4-cyano-thiazolidin-3-yl)-2-oxoethyl)quinoline-4-carboxamide]	78	0.046	460	44	480 (≈ 217 µg/mL)	0.000068	1100000	0.066		
N#C[C@@H]1CSCN1C(=O)CNC(=O)c1ccnc2ccc(-n3ccnc3-c3ccccc3)cc12 [Example 217, (R)—N-(2-(4-Cyanothiazolidin-3-yl)-2-oxoethyl)-6-(2-phenyl-1H-imidazol-1-yl)quinoline-4-carboxamide]	> 300	0.67	310	37	410 (≈ 192 µg/mL)	0.0013	1800000	0.71		
N#C[C@@H]1CSCN1C(=O)CNC(=O)c1ccnc2ccc(-n3ccc(-c4ccccc4)c3)cc12 [Example 218, (R)—N-(2-(4-Cyanothiazolidin-3-yl)-2-oxoethyl)-6-(3-phenyl-1H-pyrrol-1-yl)quinoline-4-carboxamide]	37	0.068	390	18	< 0.16	0.00032	670000	0.48		
N#C[C@@H]1CSCN1C(=O)CNC(=O)c1ccnc2ccc(-n3ccc4c3CCCC4)cc12 [Example 219, (R)—N-(2-(4-Cyanothiazolidin-3-yl)-2-oxoethyl)-6-(4,5,6,7-tetrahydro-1H-indol-1-yl)quinoline-4-carboxamide]	160	0.11	230	75	2.5 (≈ 1.11 µg/mL)	0.0002	2400000	0.083		
N#C[C@@H]1CSCN1C(=O)CNC(=O)c1ccnc2ccc(N3CC4(CCS4)C3)cc12 [Example 222, (R)—N-(2-(4-Cyanothiazolidin-3-yl)-2-oxoethyl)-6-(1-thia-6-azaspiro[3.3]heptan-6-yl)quinoline-4-carboxamide]		0.087	490	4.2				0.022	40	120 (≈ 52.7 µg/mL)
N#C[C@@H]1CSCN1C(=O)CNC(=O)c1ccnc2ccc(N3CCC(F)(c4ccccc4)CC3)cc12 [Example 223, (R)—N-(2-(4-Cyanothiazolidin-3-yl)-2-oxoethyl)-6-(4-fluoro-4-phenyl-piperidin-1-yl)quinoline-4-carboxamide]	57	0.076	86	51	< 1.6	0.000026	2500000	0.01		
